# Measurements: patent US9540299B2, “MTOR-independent activator of TFEB for autophagy enhancement and uses thereof” (Hong Kong Baptist University, priority 2015, dated 2017)
# Target: T1, 3×Flag-TFEB (Homo sapiens, UniProt P19484)
# T1 construct: expressed in transfected cells
# T1 sequence (P19484 1-476): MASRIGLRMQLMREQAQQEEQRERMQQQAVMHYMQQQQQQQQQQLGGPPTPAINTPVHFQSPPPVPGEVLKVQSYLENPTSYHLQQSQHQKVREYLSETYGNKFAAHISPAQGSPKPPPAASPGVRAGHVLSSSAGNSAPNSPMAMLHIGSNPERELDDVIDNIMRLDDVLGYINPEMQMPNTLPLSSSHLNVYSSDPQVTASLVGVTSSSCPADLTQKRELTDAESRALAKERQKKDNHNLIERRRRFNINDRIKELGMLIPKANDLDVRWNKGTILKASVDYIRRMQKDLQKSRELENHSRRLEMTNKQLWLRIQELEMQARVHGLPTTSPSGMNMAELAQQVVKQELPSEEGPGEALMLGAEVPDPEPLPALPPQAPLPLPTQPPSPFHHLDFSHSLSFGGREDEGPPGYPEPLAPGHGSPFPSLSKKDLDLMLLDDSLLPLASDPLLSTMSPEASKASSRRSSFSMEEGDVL
# Assay: Nuclear translocation of Flag-TFEB in Hela cells stably expressing 3×Flag-TFEB (immunostaining, western blot)
# Assay type: cell-based
# Conditions: analogs 1 μM, curcumin 10 μM, 12 h, Torin 1 1 μM, 2 h
# Description: Cells were treated with curcumin (Cur, 10 μM), A2, B3 and C1 (1 μM) for 12 h. […] Data is quantified by ImageJ software and is presented as mean±SD of three replicates for each treatment conditions. At least 1000 cells are analyzed in each treatment group. *p<0.05 vs. the control (0.1% DMSO). FIG. 4C is a western blot showing the expression of endogenous TFEB. […] Data are presented as the mean±SD from three independent experiments. *p<0.05 vs. the control (0.1% DMSO). FIG. 4E is fluorescence images showing expression of 3×Flag-TFEB in Hela cells having treated with Cur (10 μM), A2, B3 and C1 (1 μM) for 12 h. Torin 1 (1 μM) treatment for 2 h is used as a positive control. Cells were fixed and stained with anti-Flag antibody. […] FIG. 4G is the western blot showing the expression of Flag-tagged TFEB in the cytosolic (Cyt.) and nuclear (Nuc.) fractions. ACTB and H3F3A (H3 histone, family 3A) are used as loading control of cytoplasmic and nuclear fraction, respectively. FIG. 4H is showing the relative intensity of TFEB in the cytosolic and nuclear fractions. Data are presented as the mean±SD from three independent experiments. *p<0.05 vs. the control (0.1% DMSO).
# HeLa cells stably expressing 3×Flag-TFEB are treated with curcumin analogs E2, E3 and E4 (1 μM) for 12 hours. Torin 1 (1 μM) treatment for 2 hours is used as a positive control. Cells are fixed and stained with anti-Flag antibody (red) and DAPI (blue) (FIG. 18A). TFEB translocate into nucleus are quantified (FIG. 18B). Quantification data are presented as mean±SD of three replicates in a representative experiment. At least 500 cells are analyzed in each treatment group.
# HeLa cells stably expressing 3×Flag-TFEB are treated with curcumin analogs E2, E3 and E4 (1 μM) for 12 hours. Torin 1 (1 μM) treatment for 2 hours is used as a positive control. The expression of TFEB in the cytosolic (Cyt.) and nuclear (Nuc.) fractions are determined by western blotting (FIG. 19A) and quantified (FIG. 19B). TUBB (β-tubulin) and H3F3A (H3 histone, family 3A) are used as loading control of cytoplasmic and nuclear fraction respectively. Quantification data are presented as the mean±SD from three independent experiments. *p<0.05 vs. the control (0.1% DMSO).
# N2a, Hela and Hela cells stably expressing 3×-Flag-TFEB are cultured in DMEM supplemented with 10% FBS. SH-SY5Y cells are cultured in DMEM/F12 supplemented with 10% FBS. For drug treatment, the full medium is replaced by fresh Opti-MEM I and then the compounds (in 0.1% DMSO) are added to the cells and incubated for 12 h. Inducible PC12 cells overexpressing SNCA (WT and A53T) (a kind gift from Prof. David C. Rubinsztein at Cambridge University) are grown in DMEM supplemented with 10% horse serum, 5% FBS, 50 μg/ml G418, and 150 μg/ml hygromycin B at 37° C., 10% CO2. Cells are treated with 2 μg/ml doxycycline (Dox) for 24 h to induce SNCA expression. The full medium is changed to Opti-MEM I containing the testing compounds for another 48 h.
# Cells are lysed on ice in 1× Lysis Buffer (9803, Life Technologies) with complete protease inhibitor mixture (04693124001, Roche Applied Science). Animal tissues are homogenized in nine volumes of ice-cold PBS supplemented with protease inhibitors. Cytosolic and nuclear fractions are isolated using protocols similar to those described previously. Anti-Flag or TFEB antibody is added to the whole cell lysates and Dynabeads® Protein G (10003D, Life Technologies) is used for immunoprecipitation. Proteins are separated by 10-15% SDS-PAGE, transferred, and blotted with the antibodies described. The blots are then incubated with secondary antibodies or the Clean-Blot IP Detection Reagent (21230, Thermo Scientific) at room temperature for 1 h. The protein signals are detected by ECL kit (32106, Pierce) and quantified using ImageJ software.
# Cells are seeded on coverslips placed in 24-well plates. […]
row,Structure (SMILES),nuclear translocation of Flag-TFEB
1,O=C(/C=C/c1ccccc1Cl)/C=C/c1ccccc1Cl [E2],significantly promote
2,O=C(/C=C/c1ccccc1I)/C=C/c1ccccc1I [E4],significantly promote
3,"O=C(/C=C/c1cccc(C(F)(F)F)c1)/C=C/c1cccc(C(F)(F)F)c1 [A2, 1,5-bis(3-(trifluoromethyl)phenyl)penta-1,4-dien-3-one]",no effects
4,"COc1cc(/C=C/C(=O)CC(=O)/C=C/c2ccc(O)c(OC)c2)ccc1O [curcumin, Curcumin, reference compound]",no effects
5,"O=C(/C=C/c1ccc(O)cc1)/C=C/c1ccc(O)cc1 [B3, 1,5-bis(4-hydroxyphenyl)penta-1,4-dien-3-one]",no effects
6,"COc1ccccc1/C=C/C(=O)/C=C/c1ccccc1OC [C1, 1,5-bis(2-methoxyphenyl)penta-1,4-dien-3-one]",significantly promotes
7,O=C(/C=C/c1ccccc1Br)/C=C/c1ccccc1Br [E3],significantly promote
